{"source": "patent US20170042899A1", "about": "“Use of Tetrahydrobiopterine Derivatives in the Treatment and Nutrition of Patients With Amino Acid Metabolic Disorders” (BioMarin Pharmaceutical Inc., priority 2002, published 2017)", "key": {"[1]": {"tested_on": "patients with a lack of tetrahydrobiopterine", "details": "more than 350 patients with a lack of tetrahydrobiopterine treated with the co-factor; cited from earlier work"}, "[2]": {"tested_on": "children with mild phenylketonurea", "test": "Long time treatment with tetrahydrobiopterine replacing the phenylalanine poor diet", "format": "in vivo, human", "details": "five children", "procedure": "The families with five children aged from 4 to 14 years with mild phenylketonurea consented to a therapeutic test, in which the phenylalanine poor diet was replaced by an oral administration of tetrahydrobiopterine in daily doses between 7.1 and 10.7 mg/kg body weight. The treatment lasted 207±51.3 days (average±SD; length 166-263)."}, "[3]": {"test": "Serum residence time", "details": "in vivo"}, "[4]": {"tested_on": "persons with a deficiency in phenylalanine hydroxylase", "test": "Combined phenylalanine and tetrahydrobiopterine exposure or stress test (phenylalanine concentration in blood)", "format": "in vivo, human", "details": "for patients with a response to tetrahydrobiopterine: blood phenylalanine sank by at least 30% 15 hours after exposure", "from_the_text": "In order to research the therapeutic effectiveness of tetrahydrobiopterine, one carries out a combined phenylalanine tetrahydrobiopterine stress test for diagnostic and analyzes the effect in vivo by means of determining the [^13C] phenylalanine oxidation rate and 38 persons with a deficiency in phenylalanine hydroxylase prior to and subsequent to the administration of tetrahydrobiopterine derivatives. The response to tetrahydrobiopterine was associated with certain genotypes, and we localized mutations on the basis of the structural models of the phenylalanine hydroxylase monomer and the therefrom derived protein misfolding. We obtained the written consent of the families of 38 children, which suffered from various subset forms of hyperphenylalaninamie. The classification occurred depending upon the plasma phenylalanine concentration prior to treatment: less than 600 μmol/l, mild hyperphenylalaninamie, n=10, age 15 days through 10 years; 600-1200 μmol/l, mild, n=21, age 8 days through 17 years; greater than 1200 μmol, classical phenylketonurea, n=7, age 1 day through 9 years. A defect in this tetrahydrobiopterine biosynthesis or in the recycling of the tetrahydrobiopterine was ruled out by an analysis of the pterine value in urine and the dihydropteridine-reductase activity in erythrocytes. We examined seven patients during the newborn period and 31 as they were already older. Afflicted siblings (n=5) were likewise included in the study, since it is known that non-genetic factors influence the phenylalanine homeostasis. The uptake of phenylalanine was accomplished in that the patients were allowed to take a meal with 100 mg phenylalanine per kilogram body weight. One hour after the end of the meal the patients took 20 mg tetrahydrobiopterine per kilogram (Schircks Laboratories, Jona, Switzerland). The phenylalanine concentration in blood was determined by an electro spray ionization tandem mass spectroscopy—prior to the uptake of phenylalanine and prior to and subsequent to (at 4, 8 and 15 hours) provocation or exposure to tetrahydrobiopterine. During the test phase the newborns were fed with mothers milk, while the older children received a standardized protein supply (10 mg phenylalanine per kg) between six and eight hours after the exposure to tetrahydrobiopterine. The patients were classified as reacting to tetrahydrobiopterine if the phenylalanine concentration in the blood 15 hours after the exposure to tetrahydrobiopterine sank by at least 30% in comparison to the value prior to the intake of tetrahydrobiopterine."}, "[5]": {"tested_on": "persons with a deficiency in phenylalanine hydroxylase", "test": "In vivo analysis of L-[13C]phenylalanine oxidation (13CO2 breath test)", "set-up": "species or system human", "from_the_text": "In order to research the therapeutic effectiveness of tetrahydrobiopterine, one carries out a combined phenylalanine tetrahydrobiopterine stress test for diagnostic and analyzes the effect in vivo by means of determining the [^13C] phenylalanine oxidation rate and 38 persons with a deficiency in phenylalanine hydroxylase prior to and subsequent to the administration of tetrahydrobiopterine derivatives. The response to tetrahydrobiopterine was associated with certain genotypes, and we localized mutations on the basis of the structural models of the phenylalanine hydroxylase monomer and the therefrom derived protein misfolding.\nThe tests were carried out after a four hour fast in small children and an overnight fast in older children. Overall 6 mg L-[1^−13C] phenylalanine (Euriostop, Paris, France) per kilogram body weight were taken in orally. The tracer was dissolved in a 25% dextrose solution (2 mg per milliliter). Subsequently breath samples were taken over a period of 180 minutes and stored in air-free glass pipes until analysis by means of isotope mass spectroscopy (deltaS, Thermoquest, Bremen). The recapture of carbon-13 in the breath samples was calculated, as described by Treacy et al, wherein a total carbon dioxide of 300 mmol per hour×[…] of body surface was assumed. The ^13CO2-production was represented as a cumulative percentage rate of the calculated dose against time. The validity of the results in the newborn could have been influenced by the nutrition or the fact that the collection of the breath sample is more difficult with them than with older children. […] In cross section, less than one (older children) and less than two (newborns) of 27 sequential ^13CO2 measurements, which were obtained during the 180 minutes of an individual test, were not capable of interpretation.\nPatients with various clinical stages of illness achieved basile cumulative ^13CO2 recapture rates, which respectively reflected their individual rest phenylalanine oxidation capacity (classic phenylketonurea, average value 1.4%; mild phenylketonurea, 3.1%; mild hyperphenylalaninamie, 5.6%; the healthy comparison group 9.0%). […] The rise was more clearly pronounced in patients with a mild phenylketonurea than in patients with a mild hyperphenylalaninamie (FIG. 2A). […] This is associated therewith that with longer therapies, also in the cases of hyperphenylalaninamie derivative, improvement by tetrahydrobiopterine could be achieved."}, "[6]": {"details": "a patient with classic phenylketonurea"}}}
{"smiles": "C[C@H](O)[C@H](O)[C@H]1CNc2[nH]c(N)nc(=O)c2N1.Cl.Cl", "note": "[BIOPTEN, sapropterinhydrochloride]", "values": [{"measurement": "dose dependent undesired side effects", "setting": "[1]", "result": "interference with sleep, polyurea and thin stool"}]}
{"smiles": "C[C@H](O)[C@H](O)[C@H]1CNc2nc(N)[nH]c(=O)c2N1", "note": "[tetrahydrobiopterine, 5,6,7,8-tetrahydrobiopterine]", "values": [{"measurement": "phenylalanine concentration in blood during the pure cofactor treatment", "setting": "[2]; diet replaced by tetrahydrobiopterine", "result": "378 ± 173", "unit": "µmol/L"}, {"measurement": "daily phenylalanine tolerance with treatment (range)", "setting": "[2]; oral 7.1-10.7 mg/kg body weight daily", "result": "17.9-90 mg/kg body weight"}, {"measurement": "daily phenylalanine tolerance with treatment (average±SD)", "setting": "[2]; oral 7.1-10.7 mg/kg body weight daily, 207±51.3 days", "result": "61.4±27.9", "unit": "mg/kg body weight"}, {"measurement": "serum residence time", "setting": "[3]", "result": "approximately 8 hours"}, {"measurement": "phenylalanine concentration in the blood after exposure", "setting": "[4]; 23 of the 27 patients reacting to tetrahydrobiopterine", "result": "less than 200 μmol/l"}, {"measurement": "patients in whom tetrahydrobiopterine significantly decreased the phenylalanine content in the blood and improved the phenylalanine oxidation", "setting": "[4]; 27 of the 31 patients with mild hyperphenylalaninamie (n=10) or mild phenylketonurea (n=21)", "result": 87, "unit": "%"}, {"measurement": "phenylalanine concentration in blood, change", "setting": "[4]; [6]", "result": "slight increase"}, {"measurement": "patients satisfying the criteria of a strong response to tetrahydrobiopterine", "setting": "[4]; classical phenylketonurea (n=7)", "result": "none"}, {"measurement": "patients with a response to tetrahydrobiopterine", "setting": "[4]; mild hyperphenylalaninamie", "result": "all ten"}, {"measurement": "patients with a response to tetrahydrobiopterine", "setting": "[4]; mild phenylketonurea", "result": "17 of 21"}, {"measurement": "phenylalanine concentration in the blood after exposure", "setting": "[4]; patients which did not react", "result": "exceeded 400 μmol/l"}, {"measurement": "total 13CO2 recapture after treatment", "setting": "[5]; 10 mg/kg body weight, 24 hours, patients which had responded to the stress test", "result": "rose significantly"}, {"measurement": "persons reacting to tetrahydrobiopterine that achieved oxidation rates in a normal level", "setting": "[5]; 27 persons reacting to tetrahydrobiopterine", "result": "22 of the 27"}, {"measurement": "phenylalanine oxidation rate, change", "setting": "[5]; [6]", "result": "improvement"}, {"measurement": "patients which did not respond exhibiting a mild rise in phenylalanine oxidation", "setting": "[5]; after short time therapy with tetrahydrobiopterine", "result": "8 of 11"}]}
